Experiment [1] deals with T1, Ubiquitin-associated and SH3 domain-containing protein A (Homo sapiens) (UniProt P57075).
T1 sequence (whole entry): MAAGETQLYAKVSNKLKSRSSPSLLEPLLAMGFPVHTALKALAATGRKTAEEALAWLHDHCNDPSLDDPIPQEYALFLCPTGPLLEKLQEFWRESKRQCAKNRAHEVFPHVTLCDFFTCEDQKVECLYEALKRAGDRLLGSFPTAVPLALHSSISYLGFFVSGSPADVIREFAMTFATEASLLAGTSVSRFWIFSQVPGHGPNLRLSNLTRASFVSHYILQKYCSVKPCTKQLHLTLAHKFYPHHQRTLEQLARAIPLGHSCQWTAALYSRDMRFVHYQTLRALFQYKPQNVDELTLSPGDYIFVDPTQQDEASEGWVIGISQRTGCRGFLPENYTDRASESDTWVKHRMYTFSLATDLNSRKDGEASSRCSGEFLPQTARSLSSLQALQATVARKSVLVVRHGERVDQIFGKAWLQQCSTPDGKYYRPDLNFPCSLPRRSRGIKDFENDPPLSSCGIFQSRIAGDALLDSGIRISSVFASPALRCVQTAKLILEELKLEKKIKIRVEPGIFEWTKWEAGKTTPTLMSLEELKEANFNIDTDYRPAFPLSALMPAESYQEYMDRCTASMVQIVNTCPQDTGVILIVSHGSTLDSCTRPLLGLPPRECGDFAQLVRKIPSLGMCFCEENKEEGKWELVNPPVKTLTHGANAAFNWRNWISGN
In words: Inhibition of human STS-2 HP domain (396 to 657 residues) phosphatase activity expressed in Escherichia coli BL21 (DE3) incubated for 20 mins by spectrophotometric analysis.

Experiment [2] has as its target Tyrosine-protein phosphatase non-receptor type 6 (Homo sapiens) (UniProt P29350). The experiment in a line: Inhibition of recombinant human SHP1 (243 to 541 residues) phosphatase activity expressed in Escherichia coli incubated for 20 mins by spectrophotometric analysis.
The species named for experiment [3] is Homo sapiens. In words: Inhibition of recombinant STS-1 W505L mutant HP domain (unknown origin).
Experiment [4] concerns the target T2, Receptor-type tyrosine-protein phosphatase C (Homo sapiens) (UniProt P08575).
T2 sequence (whole entry): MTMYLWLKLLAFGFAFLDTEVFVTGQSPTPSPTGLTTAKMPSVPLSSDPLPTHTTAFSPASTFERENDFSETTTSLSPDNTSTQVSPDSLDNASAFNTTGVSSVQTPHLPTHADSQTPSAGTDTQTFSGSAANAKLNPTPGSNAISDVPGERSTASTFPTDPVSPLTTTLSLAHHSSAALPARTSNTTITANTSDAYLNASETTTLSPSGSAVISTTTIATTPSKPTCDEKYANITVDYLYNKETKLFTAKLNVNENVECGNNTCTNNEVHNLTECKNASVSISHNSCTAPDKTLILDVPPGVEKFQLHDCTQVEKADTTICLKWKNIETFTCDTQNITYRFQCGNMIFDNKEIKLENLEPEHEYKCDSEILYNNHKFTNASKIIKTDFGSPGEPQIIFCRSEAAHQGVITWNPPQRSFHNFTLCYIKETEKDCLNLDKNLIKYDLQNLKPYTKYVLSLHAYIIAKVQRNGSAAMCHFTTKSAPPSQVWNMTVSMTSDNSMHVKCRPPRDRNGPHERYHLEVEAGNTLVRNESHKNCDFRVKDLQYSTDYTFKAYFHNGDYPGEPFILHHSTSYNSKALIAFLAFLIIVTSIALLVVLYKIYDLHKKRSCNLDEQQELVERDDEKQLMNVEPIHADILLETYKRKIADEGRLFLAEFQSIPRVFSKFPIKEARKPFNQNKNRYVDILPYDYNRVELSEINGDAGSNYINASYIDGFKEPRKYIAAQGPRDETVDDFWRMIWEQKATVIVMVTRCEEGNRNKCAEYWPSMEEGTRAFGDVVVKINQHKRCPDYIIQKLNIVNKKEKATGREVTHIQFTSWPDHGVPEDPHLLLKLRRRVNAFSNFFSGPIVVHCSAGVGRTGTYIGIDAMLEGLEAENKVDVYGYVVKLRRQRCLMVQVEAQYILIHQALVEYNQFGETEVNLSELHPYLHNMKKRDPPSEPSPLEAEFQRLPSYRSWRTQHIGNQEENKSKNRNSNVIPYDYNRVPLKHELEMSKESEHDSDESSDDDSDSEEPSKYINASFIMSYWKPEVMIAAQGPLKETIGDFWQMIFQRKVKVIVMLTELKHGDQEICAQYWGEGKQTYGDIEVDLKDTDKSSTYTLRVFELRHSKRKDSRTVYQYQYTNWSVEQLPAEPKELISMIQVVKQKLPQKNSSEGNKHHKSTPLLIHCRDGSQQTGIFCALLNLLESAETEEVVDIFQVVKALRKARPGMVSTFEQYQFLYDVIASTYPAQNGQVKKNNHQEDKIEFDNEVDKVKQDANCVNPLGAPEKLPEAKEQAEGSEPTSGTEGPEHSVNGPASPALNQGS
The experiment in a line: Inhibition of recombinant human CD45 (604 to 1304 residues) phosphatase activity expressed in baculovirus infected Sf9 incubated for 20 mins by spectrophotometric analysis.

The target in experiment [5] is T3, Tyrosine-protein phosphatase non-receptor type 1 (Homo sapiens) (UniProt P18031).
T3 sequence (whole entry): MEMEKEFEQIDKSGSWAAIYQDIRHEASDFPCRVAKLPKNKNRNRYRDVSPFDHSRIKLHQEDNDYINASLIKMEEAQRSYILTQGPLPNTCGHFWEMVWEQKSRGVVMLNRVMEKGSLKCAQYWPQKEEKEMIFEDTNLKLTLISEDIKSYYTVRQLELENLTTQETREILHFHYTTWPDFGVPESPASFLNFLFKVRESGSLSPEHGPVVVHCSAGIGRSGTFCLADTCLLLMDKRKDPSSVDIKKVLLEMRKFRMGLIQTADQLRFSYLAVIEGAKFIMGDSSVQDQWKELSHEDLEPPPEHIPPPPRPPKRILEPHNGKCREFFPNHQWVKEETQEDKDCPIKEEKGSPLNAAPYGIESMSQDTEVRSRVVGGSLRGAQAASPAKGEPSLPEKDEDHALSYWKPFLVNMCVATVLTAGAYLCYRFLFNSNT
The experiment in a line: Inhibition of recombinant human PTP-1B (1 to 321 residues) phosphatase activity expressed in Escherichia coli incubated for 20 mins by spectrophotometric analysis.

Calls of active or inactive are those of the source. The rule behind the calls is not given here.

Sequence of Tyrosine-protein phosphatase non-receptor type 6 (Homo sapiens) (P29350 whole entry, the tested form may be a part): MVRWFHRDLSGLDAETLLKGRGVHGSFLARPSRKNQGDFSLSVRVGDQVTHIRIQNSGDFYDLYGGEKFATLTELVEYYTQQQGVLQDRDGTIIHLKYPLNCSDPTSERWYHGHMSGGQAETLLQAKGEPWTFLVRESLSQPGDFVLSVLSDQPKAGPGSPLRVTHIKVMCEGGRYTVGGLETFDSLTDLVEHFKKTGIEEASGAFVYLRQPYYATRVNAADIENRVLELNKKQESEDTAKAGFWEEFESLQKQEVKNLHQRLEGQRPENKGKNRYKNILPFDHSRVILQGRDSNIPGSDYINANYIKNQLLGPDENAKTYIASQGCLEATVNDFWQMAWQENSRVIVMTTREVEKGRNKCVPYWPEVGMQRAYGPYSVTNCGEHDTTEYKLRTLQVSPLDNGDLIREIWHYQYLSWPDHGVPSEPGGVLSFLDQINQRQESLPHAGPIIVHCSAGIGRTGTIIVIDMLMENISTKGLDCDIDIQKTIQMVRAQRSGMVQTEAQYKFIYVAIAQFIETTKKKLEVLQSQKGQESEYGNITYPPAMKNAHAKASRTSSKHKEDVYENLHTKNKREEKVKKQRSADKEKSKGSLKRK

As to `O=C(NC(Cc1cc(=O)[nH]c2ccccc12)C(=O)O)c1ccc(Cl)cc1` (stereo not given), the inhibition entry in experiment [1] is “Active”. In addition, the inhibition entry in experiment [2], in experiment [3], in experiment [4] and in experiment [5] was “inactive” throughout.
